Assay results published in patent publication US20140088192A1, “SUBCUTANEOUSLY INFUSIBLE LEVODOPA PRODRUG COMPOSITIONS AND METHODS OF INFUSION” (SynAgile Corporation, priority 2010, published 2014).

Tests used:
[1] = Hydrolysis of LDEE salts to LD in aqueous solution, monitored by HPLC; type: physicochemical
[2] = Precipitation of LD from / clarity of LDEE solutions on holding; conditions: for appearance of infused solution after storage: 2.3 M
Protocol: 150 mg of LDEE was dissolved in 3 mL of physiological saline (0.90% weight/volume of NaCl/water) at about 23° C., then at about 37° C. an additional amount of 22 mg of LDEE was added for a total LDEE concentration of about 57.3 mg/mL or about 0.25M.
At the ambient temperature of about 23° C., 226 mg of LDEE was dissolved in 1 mL of 1 M HCl. To the formed aqueous LDEE.HCl solution an additional amount of about 184 mg LDEE was added, followed by about 0.1 mL deionized water.
At the ambient temperature of about 23° C., about 113 mg of LDEE was dissolved in 1 mL of 1 M HCl. To the formed aqueous LDEE.HCl solution an additional amount of about 87 mg LDEE was added, followed by about 0.1 mL distilled water.
At the ambient temperature of about 23° C., about 226 mg of LDEE was dissolved in 1 mL of 1 M acetic acid. To the formed aqueous LDEE acetate salt solution an additional amount of about 168 mg LDEE was added. […] The pH of the resulting suspension was about 7.01 at about 26.4° C.
1.7 g of LDEE (7.5 millimoles) was dissolved in 1.405 mL of aqueous 5M HCl, then enough trisodium citrate was added to increase the pH to 5.5.
After flushing with nitrogen, the solution was kept for 7 days at 23±2° C. in a vial sealed with a grey elastomeric, substantially oxygen impermeable septum.

CCOC(=O)[C@@H](N)Cc1ccc(O)c(O)c1.Cl [LDEE.HCl, LDEE Hydrochloride]
LD/LDEE HPLC peak ratio ([1]; 0.48M LDEE•HCl, 40° C., 0 hrs, initial pH 4.2): 0.1292 | LD/LDEE HPLC peak ratio ([1]; 0.48M LDEE•HCl, 40° C., 0 hrs, initial pH 4.4): 0.1309 | LD/LDEE HPLC peak ratio ([1]; 0.48M LDEE•HCl, 40° C., 0 hrs, initial pH 4.6): 0.133 | LD/LDEE HPLC peak ratio ([1]; 0.48M LDEE•HCl, 40° C., 0 hrs, initial pH 4.8): 0.1352 | LD/LDEE HPLC peak ratio ([1]; 0.48M LDEE•HCl, 40° C., 0 hrs, initial pH 5): 0.1418 | LD/LDEE HPLC peak ratio ([1]; 0.48M LDEE•HCl, 40° C., 0 hrs, initial pH 5.3): 0.1547 | LD/LDEE HPLC peak ratio ([1]; 0.48M LDEE•HCl, 40° C., 0 hrs, initial pH 5.6): 0.1902 | LD/LDEE HPLC peak ratio ([1]; 0.48M LDEE•HCl, 40° C., 2 hrs, initial pH 4.2): 0.2171 | LD/LDEE HPLC peak ratio ([1]; 0.48M LDEE•HCl, 40° C., 2 hrs, initial pH 4.4): 0.2636 | LD/LDEE HPLC peak ratio ([1]; 0.48M LDEE•HCl, 40° C., 2 hrs, initial pH 4.6): 0.2998 | LD/LDEE HPLC peak ratio ([1]; 0.48M LDEE•HCl, 40° C., 2 hrs, initial pH 4.8): 0.3758 | LD/LDEE HPLC peak ratio ([1]; 0.48M LDEE•HCl, 40° C., 2 hrs, initial pH 5): 0.5202 | LD/LDEE HPLC peak ratio ([1]; 0.48M LDEE•HCl, 40° C., 2 hrs, initial pH 5.3): 0.8609 | LD/LDEE HPLC peak ratio ([1]; 0.48M LDEE•HCl, 40° C., 2 hrs, initial pH 5.6): 1.4028 | LD/LDEE HPLC peak ratio ([1]; 0.48M LDEE•HCl, 40° C., 6 hrs, initial pH 4.2): 0.3079 | LD/LDEE HPLC peak ratio ([1]; 0.48M LDEE•HCl, 40° C., 6 hrs, initial pH 4.4): 0.3994 | LD/LDEE HPLC peak ratio ([1]; 0.48M LDEE•HCl, 40° C., 6 hrs, initial pH 4.6): 0.4804 | LD/LDEE HPLC peak ratio ([1]; 0.48M LDEE•HCl, 40° C., 6 hrs, initial pH 4.8): 0.6546 | LD/LDEE HPLC peak ratio ([1]; 0.48M LDEE•HCl, 40° C., 6 hrs, initial pH 5): 0.9805 | LD/LDEE HPLC peak ratio ([1]; 0.48M LDEE•HCl, 40° C., 6 hrs, initial pH 5.3): 1.7239 | LD/LDEE HPLC peak ratio ([1]; 0.48M LDEE•HCl, 40° C., 6 hrs, initial pH 5.6): 2.8727 | LD/LDEE HPLC peak ratio ([1]; 0.48M LDEE•HCl, 40° C., 24 hrs, initial pH 4.2): 0.8294 | LD/LDEE HPLC peak ratio ([1]; 0.48M LDEE•HCl, 40° C., 24 hrs, initial pH 4.4): 1.1405 | LD/LDEE HPLC peak ratio ([1]; 0.48M LDEE•HCl, 40° C., 24 hrs, initial pH 4.6): 1.415 | LD/LDEE HPLC peak ratio ([1]; 0.48M LDEE•HCl, 40° C., 24 hrs, initial pH 4.8): 1.9804 | LD/LDEE HPLC peak ratio ([1]; 0.48M LDEE•HCl, 40° C., 24 hrs, initial pH 5): 3.0727 | LD/LDEE HPLC peak ratio ([1]; 0.48M LDEE•HCl, 40° C., 24 hrs, initial pH 5.3): 5.6312 | LD/LDEE HPLC peak ratio ([1]; 0.48M LDEE•HCl, 40° C., 24 hrs, initial pH 5.6): 9.6563 | LD/LDEE HPLC peak ratio ([1]; 0.95M LDEE•HCl, 40° C., 0 hrs, initial pH 4.2): 0.1238 | LD/LDEE HPLC peak ratio ([1]; 0.95M LDEE•HCl, 40° C., 0 hrs, initial pH 4.4): 0.1252 | LD/LDEE HPLC peak ratio ([1]; 0.95M LDEE•HCl, 40° C., 0 hrs, initial pH 4.6): 0.128 | LD/LDEE HPLC peak ratio ([1]; 0.95M LDEE•HCl, 40° C., 0 hrs, initial pH 4.8): 0.1354 | LD/LDEE HPLC peak ratio ([1]; 0.95M LDEE•HCl, 40° C., 0 hrs, initial pH 5): 0.1467 | LD/LDEE HPLC peak ratio ([1]; 0.95M LDEE•HCl, 40° C., 0 hrs, initial pH 5.3): 0.1628 | LD/LDEE HPLC peak ratio ([1]; 0.95M LDEE•HCl, 40° C., 0 hrs, initial pH 5.6): 0.1909 | LD/LDEE HPLC peak ratio ([1]; 0.95M LDEE•HCl, 40° C., 2 hrs, initial pH 4.2): 0.2073 | LD/LDEE HPLC peak ratio ([1]; 0.95M LDEE•HCl, 40° C., 2 hrs, initial pH 4.4): 0.2404 | LD/LDEE HPLC peak ratio ([1]; 0.95M LDEE•HCl, 40° C., 2 hrs, initial pH 4.6): 0.2994 | LD/LDEE HPLC peak ratio ([1]; 0.95M LDEE•HCl, 40° C., 2 hrs, initial pH 4.8): 0.3995 | LD/LDEE HPLC peak ratio ([1]; 0.95M LDEE•HCl, 40° C., 2 hrs, initial pH 5): 0.5443 | LD/LDEE HPLC peak ratio ([1]; 0.95M LDEE•HCl, 40° C., 2 hrs, initial pH 5.3): 0.8361 | LD/LDEE HPLC peak ratio ([1]; 0.95M LDEE•HCl, 40° C., 2 hrs, initial pH 5.6): 1.3007 | LD/LDEE HPLC peak ratio ([1]; 0.95M LDEE•HCl, 40° C., 6 hrs, initial pH 4.2): 0.2872 | LD/LDEE HPLC peak ratio ([1]; 0.95M LDEE•HCl, 40° C., 6 hrs, initial pH 4.4): 0.3618 | LD/LDEE HPLC peak ratio ([1]; 0.95M LDEE•HCl, 40° C., 6 hrs, initial pH 4.6): 0.4867 | LD/LDEE HPLC peak ratio ([1]; 0.95M LDEE•HCl, 40° C., 6 hrs, initial pH 4.8): 0.7068 | LD/LDEE HPLC peak ratio ([1]; 0.95M LDEE•HCl, 40° C., 6 hrs, initial pH 5): 1.0212 | LD/LDEE HPLC peak ratio ([1]; 0.95M LDEE•HCl, 40° C., 6 hrs, initial pH 5.3): 1.6832 | LD/LDEE HPLC peak ratio ([1]; 0.95M LDEE•HCl, 40° C., 6 hrs, initial pH 5.6): 2.7417 | LD/LDEE HPLC peak ratio ([1]; 0.95M LDEE•HCl, 40° C., 24 hrs, initial pH 4.2): 0.7792 | LD/LDEE HPLC peak ratio ([1]; 0.95M LDEE•HCl, 40° C., 24 hrs, initial pH 4.4): 1.0438 | LD/LDEE HPLC peak ratio ([1]; 0.95M LDEE•HCl, 40° C., 24 hrs, initial pH 4.6): 1.4684 | LD/LDEE HPLC peak ratio ([1]; 0.95M LDEE•HCl, 40° C., 24 hrs, initial pH 4.8): 2.2128 | LD/LDEE HPLC peak ratio ([1]; 0.95M LDEE•HCl, 40° C., 24 hrs, initial pH 5): 3.2875 | LD/LDEE HPLC peak ratio ([1]; 0.95M LDEE•HCl, 40° C., 24 hrs, initial pH 5.3): 5.6263 | LD/LDEE HPLC peak ratio ([1]; 0.95M LDEE•HCl, 40° C., 24 hrs, initial pH 5.6): 9.5612 | LD concentration versus estimated saturation concentration ([1]; 0.95 M and 0.48 M, 40° C., 24 hrs, up to about pH 5.5): remained below the estimated saturation concentration | % of LDEE.HCl hydrolyzed in the 21 week period, in addition to initial 0.16% ([1]; 2.4 M, pH 4.0, about 4° C.): 1.34% | % of LDEE.HCl hydrolyzed in the 21 week period, in addition to initial 0.15% ([1]; 2.5 M, pH 3.0, about 4° C.): 0.36% | % of the LDEE.HCl hydrolyzed to LD ([1]; 2.5 M, pH 4.5 citrate, 24 hours at 23±2° C.): 0.39% | appearance of infused solution after storage ([2]; citrate pH 4.5, 2.5 days at room temperature and 7 weeks in a refrigerator): colorless and clear | appearance of infused solution after storage ([2]; citrate pH 4.5, about 3 days at room temperature and about 3 months in a refrigerator): colorless and clear | precipitation of LD ([2]; about 0.7 M LDEE + LDEE.HCl, pH about 6.87, 37° C., 3 hours): no precipitation
